{
  "source": "patent US20140329858A1",
  "about": "“Cyclic Urea Derivatives As Androgen Receptor Antagonists” (priority 2011, published 2014)",
  "data": [
    {"test_system": "Vcap cells", "experiment": "Dihydrotestosterone (DHT) mediated XTT cell proliferation assay for screening AR antagonists using Vcap cells", "type": "cell-based", "conditions": "0.2 nM DHT, effect reached at high conc", "method": "(§1) Dihydrotestosterone (DHT) Mediated XTT Cell Proliferation Assay for Screening AR Antagonists Using Vcap cells\n(§2) The Vcap cells (4×10^6 cells) were seeded in a T-75 flask containing DMEM with 15% FBS. After 72 hours, the media was removed; the cells were washed once and replaced with phenol red free DMEM containing 8% charcoal stripped serum. Then, the cells were starved in phenol red free DMEM with 8% charcoal stripped serum for 5 days. Following the starvation, the cells were harvested and seeded in 96 well plates (10×10^3 cells per well) in phenol red free DMEM with 8% charcoal stripped serum (Day 0). The cells were allowed to settle and on Day 4 they were treated with different concentrations of the compound (30 μM, 10 μM, 1 μM, 500 nM, 100 nM, 10 nM, 1 nM, 0.1 nM) in the presence of 0.2 nM DHT. DHT alone and a DMSO controls were also included. All treatments were done in triplicate. The drugs were replenished on Day 7 and the cells were allowed to grow for another 72 hours. On Day 10, the experiment was terminated by adding the XTT reagent (2,3-bis[2-methoxy-4-notro-5-sulfophenyl]-2H-tetrazolium-5-caboxyanilide inner salt) dissolved in Phenol red free DMEM without serum. The cells with the XTT reagents were incubated inside the CO2 incubator for 3-4 hours for color development; after which the readings were taken at […] using a spectramax Gemini plate reader.\n(§3) Data fitting: The IC50 curves for the 8 compound concentrations were calculated with GraphPad Prism software using the sigmoidal dose-response function. (Graphpad Software, San Diego, Calif., USA).", "units": {"XTT: only 65% @ high conc": "%"}, "values": [
      {"compound": "CNC(=O)c1ccc(N2C(=O)N(c3ccc(C#N)c(C(F)(F)F)c3)[C@@H]3CCCC[C@H]32)cn1", "note": "(racemic) [Example 53, Trans-5-(3-(4-cyano-3-(trifluoromethyl)phenyl)-2-oxooctahydro-1H-benzo[d]imidazol-1-yl)-N-methylpicolinamide (±)]", "XTT: only 65% @ high conc": 65}
    ]},
    {"test_system": "Vcap cells", "experiment": "Dihydrotestosterone (DHT) mediated XTT cell proliferation assay for screening AR antagonists using Vcap cells", "type": "cell-based", "conditions": "Homo sapiens, 240 h, in the presence of 0.2 nM DHT, XTT readout on Day 10, IC50 curves from 8 concentrations", "method": "as §1, §2, §3", "units": {"IC50": "nM"}, "values": [
      {"compound": "CN(C)CCCONC(=O)c1ccc(N2C(=O)N(c3ccc(C#N)c(C(F)(F)F)c3)[C@@H]3CCCC[C@H]32)cc1F", "note": "(racemic) [Example 25, Trans 4-(3-(4-cyano-3-(trifluoromethyl)phenyl)-2-oxooctahydro-1H-benzo[d]im-idazol-1-yl)-N-(3-(dimethylamino)propoxy)-2-fluorobenzamide (±)]", "IC50": 42.4},
      {"compound": "CCN(CC)CCONC(=O)c1ccc(N2C(=O)N(c3ccc(C#N)c(C(F)(F)F)c3)[C@@H]3CCCC[C@H]32)cc1F", "note": "(racemic) [Example 26, Trans-4-(3-(4-cyano-3-(trifluoromethyl)phenyl)-2-oxooctahydro-1H-benzo[d]im-idazol-1-yl)-N-(2-(diethylamino)ethoxy)-2-fluorobenzamide (±)]", "IC50": 75.5},
      {"compound": "N#Cc1ccc(N2C(=O)N(c3ccc(C(=O)NOCC4CCCO4)c(F)c3)[C@@H]3CCCC[C@H]32)cc1C(F)(F)F", "note": "(mixture of isomers) [Example 27, Trans 4-(3-(4-cyano-3-(trifluoromethyl)phenyl)-2-oxooctahydro-1H-benzo[c]im-idazol-1-yl)-2-fluoro-N-((tetrahydrofuran-2-yl)methoxy)benzamide (±)]", "IC50": 196},
      {"compound": "CN1CCC(ONC(=O)c2ccc(N3C(=O)N(c4ccc(C#N)c(C(F)(F)F)c4)[C@@H]4CCCC[C@H]43)cc2F)CC1", "note": "(racemic) [Example 28, Trans 4-(3-(4-cyano-3-(trifluoromethyl)phenyl)-2-oxooctahydro-1H-benzo[c]im-idazol-1-yl)-2-fluoro-N-((1-methylpiperidin-4-yl)oxy)benzamide (±)]", "IC50": 148},
      {"compound": "N#Cc1ccc(N2C(=O)N(c3ccc(C(N)=O)c(F)c3)[C@@H]3CCCC[C@H]32)cc1C(F)(F)F", "note": "(racemic) [Example 30, Trans-4-(3-(4-cyano-3-(trifluoromethyl)phenyl)-2-oxooctahydro-1H-benzo[d]im-idazol-1-yl)-2-fluorobenzamide (±)]", "IC50": 76.3},
      {"compound": "N#Cc1ccc(N2C(=O)N(c3ccc(C(=O)NCCO)c(F)c3)[C@@H]3CCCC[C@H]32)cc1C(F)(F)F", "note": "(racemic) [Example 32, Trans 4-(3-(4-cyano-3-(trifluoromethyl)phenyl)-2-oxooctahydro-1H-benzo[d]im-idazol-1-yl)-2-fluoro-N-(2-hydroxyethyl)benzamide (±)]", "IC50": 377},
      {"compound": "CNC(=O)c1ccc(N2C(=O)N(c3ccc(C#N)c(C(F)(F)F)c3)[C@@H]3CCCC[C@H]32)cc1C", "note": "(racemic) [Example 39, Trans-4-(3-(4-cyano-3-(trifluoromethyl)phenyl)-2-oxooctahydro-1H-benzo[d]im-idazol-1-yl)-N,2-dimethylbenzamide (±)]", "IC50": 399},
      {"compound": "CNC(=O)c1ccc(N2C(=O)N(c3ccc(C#N)c(C(F)(F)F)c3)[C@@H]3CCCC[C@H]32)s1", "note": "(racemic) [Example 40, Trans-5-(3-(4-cyano-3-(trifluoromethyl)phenyl)-2-oxooctahydro-1H-benzo[d]imidazol-1-yl)-N-methylthiophene-2-carboxamide (±)]", "IC50": "> 10000"},
      {"compound": "Cc1c(N2C(=O)N(c3ccc(C#N)c(C(F)(F)F)c3)[C@H]3CCCC[C@@H]32)ccc(C#N)c1Cl", "note": "(racemic) [Example 42, Trans-2-chloro-4-(3-(4-cyano-3-(trifluoromethyl)phenyl)-2-oxooctahydro-1H-benzo[d]imidazol-1-yl)-3-methylbenzonitrile (±)]", "IC50": 168},
      {"compound": "N#Cc1ccc(N2C(=O)N(c3cc(Cl)cc(Cl)c3)[C@@H]3CCCC[C@H]32)cc1C(F)(F)F", "note": "(racemic) [Example 43, Trans-4-(3-(3,5-dichlorophenyl)-2-oxooctahydro-1H-benzo[d]imidazol-1-yl)-2-(trifluoromethyl)benzonitrile (±)]", "IC50": 339},
      {"compound": "N#Cc1ccc(N2C(=O)N(Cc3ccc(Cl)nc3)[C@@H]3CCCC[C@H]32)cc1C(F)(F)F", "note": "(racemic) [Example 47, Trans-4-(3-((6-chloropyridin-3-yl)methyl)-2-oxooctahydro-1H-benzo[d]imidazol-1-yl)-2-(trifluoromethyl)benzonitrile (±)]", "IC50": 61.6},
      {"compound": "N#Cc1ccc(CN2C(=O)N(c3ccc(C#N)c(C(F)(F)F)c3)[C@@H]3CCCC[C@H]32)cn1", "note": "(racemic) [Example 48, Trans-5-((-(4-cyano-3-(trifluoromethyl)phenyl)-2-oxooctahydro-1H-benzo[d]im-idazol-1-yl)methyl)picolinonitrile (±)]", "IC50": "> 10000"},
      {"compound": "N#Cc1ccc(N2C(=O)N(Cc3ccc(-n4ccnc4)nc3)[C@@H]3CCCC[C@H]32)cc1C(F)(F)F", "note": "(racemic) [Example 49, Trans-4-(34(6-(1H-imidazol-1-yl)pyridin-3-yl)methyl)-2-oxooctahydro-1H-benzo[d]imidazol-1-yl)-2-(trifluoromethyl)benzonitrile (±)]", "IC50": 300},
      {"compound": "N#Cc1ccc(N2C(=O)N(Cc3ccc(-n4cccn4)nc3)[C@@H]3CCCC[C@H]32)cc1C(F)(F)F", "note": "(racemic) [Example 50, Trans-4-(3-((6-(1H-pyrazol-1-yl)pyridin-3-yl)methyl)-2-oxooctahydro-1H-benzo[d]imidazol-1-yl)-2-(trifluoromethyl)benzonitrile (±)]", "IC50": "> 10000"},
      {"compound": "N#Cc1ccc(N2C(=O)N(Cc3cc[nH]n3)[C@@H]3CCCC[C@H]32)cc1C(F)(F)F", "note": "(racemic) [Example 51, Trans-4-(3-((1H-pyrazol-3-yl)methyl)-2-oxooctahydro-1H-benzo[d]imidazol-1-yl)-2-(trifluoromethyl)benzonitrile (±)]", "IC50": 1080},
      {"compound": "Cc1n[nH]cc1N1C(=O)N(c2ccc(C#N)c(C(F)(F)F)c2)[C@@H]2CCCC[C@H]21", "note": "(racemic) [Example 52, trans-4-(3-(3-methyl-1H-pyrazol-4-yl)-2-oxooctahydro-1H-benzo[d]imidazol-1-yl)-2-(trifluoromethyl)benzonitrile (±)]", "IC50": "> 10000"},
      {"compound": "CNC(=O)c1ccc(N2C(=O)N(c3ccc(C#N)c(C(F)(F)F)c3)[C@@H]3CCCC[C@H]32)cn1", "note": "(racemic) [Example 53, Trans-5-(3-(4-cyano-3-(trifluoromethyl)phenyl)-2-oxooctahydro-1H-benzo[d]imidazol-1-yl)-N-methylpicolinamide (±)]", "IC50": 165},
      {"compound": "N#Cc1ccc(N2C(=O)N(c3cccnc3F)[C@@H]3CCCC[C@H]32)cc1C(F)(F)F", "note": "(racemic) [Example 59, Trans-4-(3-(2-fluoropyridin-3-yl)-2-oxooctahydro-1H-benzo[d]imidazol-1-yl)-2-(trifluoromethyl)benzonitrile (±)]", "IC50": 1080},
      {"compound": "N#Cc1ccc(N2C(=O)N(c3ccc(Cl)cc3)[C@@H]3CCCC[C@H]32)cc1C(F)(F)F", "note": "(racemic) [Example 60, Trans-4-(3-(4-chlorophenyl)-2-oxooctahydro-1H-benzo[d]imidazol-1-yl)-2-(trifluoromethyl)benzonitrile (±)]", "IC50": 397},
      {"compound": "N#Cc1ccc(N2C(=O)N(c3ccc(S(N)(=O)=O)c(F)c3)[C@@H]3CCCC[C@H]32)cc1C(F)(F)F", "note": "(racemic) [Example 67, Trans-4-(3-(4-cyano-3-(trifluoromethyl)phenyl)-2-oxooctahydro-1H-benzo[d]imidazol-1-yl)-2-fluorobenzenesulfonamide (±)]", "IC50": 1090},
      {"compound": "CNC(=O)c1ccc(N2C(=O)N(c3ccc(C#N)c(C(F)(F)F)c3)[C@@H]3COCC[C@H]32)cc1F", "note": "(racemic) [Example 71, Trans-4-{3-[4-Cyano-3-(trifluoromethyl)phenyl]-2-oxo-octahydropyrano[3,4-d]imidazolidin-1-yl}-2-fluoro-N-methylbenzamide (±)]", "IC50": 656},
      {"compound": "Cc1cc(N2C(=O)N(c3ccc(C#N)c(C(F)(F)F)c3)[C@@H]3COCC[C@H]32)ccn1", "note": "(racemic) [Example 72, Trans-4-(1-(2-methylpyridin-4-yl)-2-oxohexahydropyrano[3,4-d]imidazol-3(2H)-yl)-2-(trifluoromethyl)benzonitrile (±)]", "IC50": "> 10000"},
      {"compound": "CNC(=O)c1ccc(N2C(=O)N(c3ccc(C#N)c(C(F)(F)F)c3)[C@@H]3CCOC[C@H]32)cc1F", "note": "(racemic) [Example 73, Trans-4-(1-(4-Cyano-3-(trifluoromethyl)phenyl)-2-oxohexahydropyrano[3,4-d]imidazol-3(2H)-yl)-2-fluoro-N-methylbenzamide (±)]", "IC50": 2550},
      {"compound": "N#Cc1ccc(N2C(=O)N(c3ccc(C(N)=O)c(F)c3)[C@@H]3CCOC[C@H]32)cc1C(F)(F)F", "note": "(racemic) [Example 76, Trans-4-(3-(4-cyano-3-(trifluoromethyl)phenyl)-2-oxohexahydropyrano[3,4-d]imidazol-1(6H)-yl)-2-fluorobenzamide (±)]", "IC50": 2540},
      {"compound": "Cc1cc(N2C(=O)N(c3ccc(C#N)c(C(F)(F)F)c3)[C@H]3COCC[C@@H]32)ccc1C(N)=O", "note": "(racemic) [Example 79, Trans-4-(3-(4-cyano-3-(trifluoromethyl)phenyl)-2-oxohexahydropyrano[3,4-c]imidazol-1(6H)-yl)-2-methylbenzamide (±)]", "IC50": 4330},
      {"compound": "CNC(=O)c1ccc(N2C(=O)N(c3ccc(C#N)c(C(F)(F)F)c3)[C@@H]3CCCCC[C@H]32)cc1F", "note": "(racemic) [Example 80, Trans-4-(3-(4-cyano-3-(trifluoromethyl)phenyl)-2-oxooctahydrocyclohepta[d]imidazol-1(2H)-yl)-2-fluoro-N-methylbenzamide (±)]", "IC50": 254}
    ]}
  ]
}
